Experimental data from ChEMBL document CHEMBL6109160, “Novel Cyclic Peptides as Interleukin-23 Inhibitor for Treating Inflammatory Disorders” (ACS Med Chem Lett, 2025).

Biological target: T1, Interleukin-23 receptor (Homo sapiens, UniProt Q5VWK5)
T1 sequence (Q5VWK5 whole entry): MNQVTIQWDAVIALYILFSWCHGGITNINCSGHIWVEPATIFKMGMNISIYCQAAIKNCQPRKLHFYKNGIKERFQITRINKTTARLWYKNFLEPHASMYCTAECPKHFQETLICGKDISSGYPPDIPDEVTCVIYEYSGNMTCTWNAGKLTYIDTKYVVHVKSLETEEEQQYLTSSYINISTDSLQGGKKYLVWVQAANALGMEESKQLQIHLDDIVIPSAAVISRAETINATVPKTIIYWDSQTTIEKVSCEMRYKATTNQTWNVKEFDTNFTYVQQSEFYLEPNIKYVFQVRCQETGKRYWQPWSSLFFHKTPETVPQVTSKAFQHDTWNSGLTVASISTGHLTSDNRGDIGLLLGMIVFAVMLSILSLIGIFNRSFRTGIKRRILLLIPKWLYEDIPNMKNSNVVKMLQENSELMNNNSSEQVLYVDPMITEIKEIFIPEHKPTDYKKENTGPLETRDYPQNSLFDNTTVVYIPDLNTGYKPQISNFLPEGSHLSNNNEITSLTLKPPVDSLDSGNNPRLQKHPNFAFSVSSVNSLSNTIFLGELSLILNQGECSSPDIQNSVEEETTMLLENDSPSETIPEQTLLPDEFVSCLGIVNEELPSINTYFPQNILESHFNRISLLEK
Assay: Binding affinity to Interleukin-23 receptor in HEK293 cells transfected with firefly luciferase reporter incubated for 5 hrs by luminescence based analysis
Assay type: cell-based

IC50: 12 nM
Compound: CC(=O)NCCCC[C@@H]1NC(=O)[C@H](Cc2c[nH]c3c(C)cccc23)NC(=O)[C@H]([C@@H](C)O)NC(=O)[C@H](CC(N)=O)NC(=O)[C@@H](NC(=O)CCOCCOCC[N+](C)(C)C)C(C)(C)SSC(C)(C)[C@@H](C(=O)N[C@@H](Cc2ccc(OCCN)cc2)C(=O)N[C@@H](Cc2ccc3ccccc3c2)C(=O)NC2(C(=O)N[C@@H](CCC(=O)O)C(=O)N[C@@H](CC(N)=O)C(=O)N[C@@H](Cc3cccnc3)C(=O)N(C)CC(N)=O)CCOCC2)NC1=O
